According to patent US10059701B2 (Merck Patent GmbH, priority 2015, dated 2018):

What was measured:
[1] = molecular target: T1, IRAK4 (Homo sapiens, UniProt Q9NWZ3); experiment: IRAK4 enzymatic assay (ADP-Glo luminescence); assay type: biochemical; details: purified human recombinant His-TEV-IRAK4 (1-460), ATP 2 μM
T1 construct: His-TEV-IRAK4 (1-460); His (N); TEV cleavage site (N)
T1 sequence (Q9NWZ3 1-460): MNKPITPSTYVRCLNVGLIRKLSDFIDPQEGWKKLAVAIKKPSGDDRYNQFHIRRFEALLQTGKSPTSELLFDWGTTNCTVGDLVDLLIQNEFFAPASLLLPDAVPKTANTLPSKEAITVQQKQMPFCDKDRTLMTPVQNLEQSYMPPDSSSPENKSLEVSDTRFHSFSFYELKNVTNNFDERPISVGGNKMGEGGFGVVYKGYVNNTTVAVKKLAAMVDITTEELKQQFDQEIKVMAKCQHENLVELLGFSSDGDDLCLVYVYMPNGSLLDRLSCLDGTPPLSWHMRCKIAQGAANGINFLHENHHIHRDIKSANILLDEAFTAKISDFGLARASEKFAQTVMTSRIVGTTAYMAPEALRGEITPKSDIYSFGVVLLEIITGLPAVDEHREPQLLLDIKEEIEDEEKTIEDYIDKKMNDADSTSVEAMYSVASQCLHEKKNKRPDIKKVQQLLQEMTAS
Description: IRAK4 is a human purified recombinant enzyme (His-TEV-IRAK4 (1-460)).
In this assay, IRAK4 hydrolyses ATP, autophosphorylates and phosphorylates a Serine/Threonine generic peptidic substrate (STK: 61ST1BLC from CisBio International). Measurement of IRAK-4 inhibition is performed in 384-well format based on a luminescence assay (ADP-Glo™ Kinase Assay from Promega). Purified human recombinant IRAK4 (0.3 μg/ml) and serial diluted compounds in DMSO (range of concentration from 10 μM to 0.5 nM) or controls (1% DMSO) are incubated for 15 minutes at RT in assay buffer containing 50 mM Hepes pH 7.0, Fatty acid-free BSA 0.1%, Dithiothreitol (DTT) 2 mM, MgCl2 10 mM, EGTA 0.5 mM, Triton X-100 0.01%, MnCl2 5 mM. The kinase reaction is then initiated by the addition of ATP (2 μM) and the peptidic substrate STK1-biotin peptide (300 nM). After 2 hours of incubation at RT, the reaction is stopped and the unconsumed ATP depleted by the addition of ADP-Glo™ Reagent according to supplier instructions. After 40 minutes of incubation at RT, the Kinase Detection Reagent is then added to the assay plate according to supplier instructions. After 20 minutes of incubation at RT, the luminescence signal is measured with a plate-reading luminometer (PerkinElmer Envision or equivalent reader).

[2] = molecular target: T2, IRAK1 (Homo sapiens, UniProt P51617); experiment: IRAK1 enzymatic assay (ADP-Glo luminescence); assay type: biochemical; details: purified human recombinant His-TEV-IRAK1 (194-712)
T2 construct: His-TEV-IRAK1 (194-712); His (N); TEV cleavage site (N)
Description: IRAK1 is a human purified recombinant enzyme (His-TEV-IRAK1 (194-712))
In this assay, IRAK1 hydrolyses ATP and autophosphorylates. Measurement of IRAK-1 inhibition is performed in 384-well format based on luminescence assay (ADP-Glo™ Kinase Assay from Promega). Purified human recombinant IRAK1 (0.3 μg/ml) and serial diluted compounds in DMSO (range of concentration from 10 μM to 0.5 nM) or controls (1% DMSO) are incubated for 15 minutes at RT in assay buffer containing 50 mM Hepes pH 7.0, Fatty acid-free BSA 0.1%, Dithiothreitol (DTT) 2 mM, MgCl2 10 mM, EGTA 0.5 mM, Triton X-100 0.01%. The kinase reaction is then initiated by the addition of ATP […] After 2 hours of incubation at RT, the reaction is stopped and the unconsumed ATP depleted by the addition of ADP-Glo™ Reagent according to supplier instructions. After 40 minutes of incubation at RT, the Kinase Detection Reagent is then added to the assay plate according to supplier instructions. After 20 minutes of incubation at RT, the luminescence signal is measured with a luminometer (PerkinElmer Envision or equivalent reader).

T2 sequence (P51617 194-712): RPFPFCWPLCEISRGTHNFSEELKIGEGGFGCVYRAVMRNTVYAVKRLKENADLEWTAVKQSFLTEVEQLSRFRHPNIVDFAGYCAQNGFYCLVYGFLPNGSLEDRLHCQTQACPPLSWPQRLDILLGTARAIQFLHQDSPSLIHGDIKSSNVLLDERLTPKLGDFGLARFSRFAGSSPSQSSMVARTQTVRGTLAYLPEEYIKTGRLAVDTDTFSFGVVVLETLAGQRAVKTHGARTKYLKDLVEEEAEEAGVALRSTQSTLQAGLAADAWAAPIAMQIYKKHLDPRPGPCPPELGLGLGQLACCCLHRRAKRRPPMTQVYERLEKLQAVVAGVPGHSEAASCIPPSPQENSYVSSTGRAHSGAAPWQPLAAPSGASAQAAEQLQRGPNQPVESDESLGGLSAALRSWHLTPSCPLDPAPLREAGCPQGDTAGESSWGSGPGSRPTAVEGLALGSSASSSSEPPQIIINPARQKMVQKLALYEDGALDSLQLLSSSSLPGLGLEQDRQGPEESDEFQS

Structure (SMILES) | IC50 [1] | IC50 [2]
O=C(/N=c1\[nH]c2cc(N3CCOCC3=O)ccc2n1CCCO)c1cccc(C(=O)N2CCOCC2)c1 [Compound 36, (E)-N-(1-(3-hydroxypropyl)-5-(3-oxomorpholino)-1H-benzo[d]imidazol-2(3H)-ylidene)-3-(morpholine-4-carbonyl)benzamide] | > 1000 nM | 100 to 1000 nM
Cc1ccc(C(=O)/N=c2\[nH]c3cc(N4CCOCC4=O)ccc3n2CCCO)cc1C(F)(F)F [Compound 78, (E)-N-(1-(3-hydroxypropyl)-5-(3-oxomorpholino)-1H-benzo[d]imidazol-2(3H)-ylidene)-4-methyl-3-(trifluoromethyl)benzamide] | ≤ 100 nM | > 1000 nM
Cc1cccc(C(=O)/N=c2\[nH]c3cc(N4CCOCC4=O)ccc3n2CCCO)c1 [Compound 105, (E)-N-(1-(3-hydroxypropyl)-5-(3-oxomorpholino)-1H-benzo[d]imidazol-2(3H)-ylidene)-3-methylbenzamide] | ≤ 100 nM | 100 to 1000 nM
N#Cc1cccc(C(=O)/N=c2\[nH]c3cc(N4CCOC4=O)ccc3n2CCCO)c1 [Compound 11, (E)-3-cyano-N-(1-(3-hydroxypropyl)-5-(2-oxooxazolidin-3-yl)-1H-benzo[d]imidazol-2(3H)-ylidene)benzamide] | ≤ 100 nM | 100 to 1000 nM
O=C(/N=c1\[nH]c2cc(N3CCOCC3=O)ccc2n1CCCO)c1cccc(-n2cnnn2)c1 [Compound 83, (E)-N-(1-(3-hydroxypropyl)-5-(3-oxomorpholino)-1H-benzo[d]imidazol-2(3H)-ylidene)-3-(1H-tetrazol-1-yl)benzamide] | ≤ 100 nM | 100 to 1000 nM
O=C(/N=c1\[nH]c2cc(N3CCOCC3=O)ccc2n1CCCCO)c1cccc(C(F)(F)F)c1 [Compound 17, (E)-N-(1-(4-hydroxybutyl)-5-(3-oxomorpholino)-1H-benzo[d]imidazol-2(3H)-ylidene)-3-(trifluoromethyl)benzamide] | ≤ 100 nM | 100 to 1000 nM
O=C(/N=c1\[nH]c2cc(N3CCOCC3=O)ccc2n1[C@H]1CCCC[C@@H]1CO)c1cccc(C(F)(F)F)c1 (racemic) [Compound 118, rac-(E)-N-(1-((1S,2S)-2-(hydroxymethyl)cyclohexyl)-5-(3-oxomorpholino)-1H-benzo[d]imidazol-2(3H)-ylidene)-3-(trifluoromethyl)benzamide] | ≤ 100 nM | 100 to 1000 nM
CC(=O)NCc1cccc(C(=O)/N=c2\[nH]c3cc(N4CCOCC4=O)ccc3n2CCCO)c1 [Compound 47, (E)-3-(acetamidomethyl)-N-(1-(3-hydroxypropyl)-5-(3-oxomorpholino)-1H-benzo[d]imidazol-2(3H)-ylidene)benzamide] | 100 to 1000 nM | 100 to 1000 nM
O=C(/N=c1\[nH]c2cc(N3CCOCC3=O)ccc2n1CCCO)c1cnccn1 [Compound 72, (E)-N-(1-(3-hydroxypropyl)-5-(3-oxomorpholino)-1H-benzo[d]imidazol-2(3H)-ylidene)pyrazine-2-carboxamide] | > 1000 nM | > 1000 nM
O=C(/N=c1\[nH]c2cc(N3CCOCC3=O)ccc2n1[C@H]1CC[C@H](O)CC1)c1cccc(C(F)F)c1 [Compound 28, trans-(E)-3-(difluoromethyl)-N-(1-(4-hydroxycyclohexyl)-5-(3-oxomorpholino)-1H-benzo[d]imidazol-2(3H)-ylidene)benzamide] | ≤ 100 nM | ≤ 100 nM

The remaining lines, values ahead:

IC50 [1] | IC50 [2] | Structure (SMILES)
≤ 100 nM | 100 to 1000 nM | CC(C)(C)OC(=O)N1CCC(n2/c(=N/C(=O)c3cccc(C(F)F)c3)[nH]c3cc(N4CCOCC4=O)ccc32)CC1 [Compound 127, (E)-tert-butyl 4-(2-((3-(difluoromethyl)benzoyl)imino)-5-(3-oxomorpholino)-2,3-dihydro-1H-benzo[d]imidazole-1-yl)piperidine-1-carboxylate]
≤ 100 nM | 100 to 1000 nM | O=C(/N=c1\[nH]c2cc(N3CC4CCC(O4)C3=O)ccc2n1CCCO)c1cccc(C(F)(F)F)c1 (stereo not drawn) [Example 217, (E)-N-(1-(3-hydroxypropyl)-5-(2-oxo-8-oxa-3-azabicyclo[3.2.1]octan-3-yl)-1H-benzo[d]imidazol-2(3H)-ylidene)-3-(trifluoromethyl)benzamide]
≤ 100 nM | > 1000 nM | CCC(CCO)n1/c(=N/C(=O)c2cccc(C(F)F)c2)[nH]c2cc(N3CCOCC3=O)ccc21 (racemic) [Compound 125, rac-(E)-3-(difluoromethyl)-N-(1-(1-hydroxypentan-3-yl)-5-(3-oxomorpholino)-1H-benzo[d]imidazol-2(3H)-ylidene)benzamide]
≤ 100 nM | ≤ 100 nM | O=C(/N=c1\[nH]c2cc(N3CCOCC3=O)c(OC(F)F)cc2n1CCCO)c1cccc(C(F)(F)F)c1 [Example 211, (E)-N-(6-(difluoromethoxy)-1-(3-hydroxypropyl)-5-(3-oxomorpholino)-1H-benzo[d]imidazol-2(3H)-ylidene)-3-(trifluoromethyl)benzamide]
≤ 100 nM | ≤ 100 nM | CS(=O)(=O)N1CCC(n2/c(=N/C(=O)c3cccc(C(F)F)c3)[nH]c3cc(N4CCOCC4=O)ccc32)CC1 [Compound 133, (E)-3-(difluoromethyl)-N-(1-(1-(methylsulfonyl)piperidin-4-yl)-5-(3-oxomorpholino)-1H-benzo[d]imidazole-2(3H)-ylidene)benzamide]
≤ 100 nM | > 1000 nM | O=C(/N=c1\[nH]c2cc(N3CCCOC3=O)ccc2n1CC1CCCCC1)c1cccc(C(F)(F)F)c1 [Compound 181, (E)-N-(1-(cyclohexylmethyl)-5-(2-oxo-1,3-oxazinan-3-yl)-1H-benzo[d]imidazol-2(3H)-ylidene)-3-(trifluoromethyl)benzamide]
≤ 100 nM | 100 to 1000 nM | CC1(C)C(=O)N(c2ccc3c(c2)[nH]/c(=N\C(=O)c2cccc(C(F)(F)F)c2)n3CCCO)CCN1C1CC1 [Compound 194, (E)-N-(5-(4-cyclopropyl-3,3-dimethyl-2-oxopiperazin-1-yl)-1-(3-hydroxypropyl)-1H-benzo[d]imidazol-2(3H)-ylidene)-3-(trifluoromethyl)benzamide]
≤ 100 nM | 100 to 1000 nM | O=C(/N=c1\[nH]c2cc(N3CCOCC3=O)c(F)cc2n1CCCO)c1cccc(C(F)(F)F)c1 [Compound 139, (E)-N-(6-fluoro-1-(3-hydroxypropyl)-5-(3-oxomorpholino)-1H-benzo[d]imidazol-2(3H)-ylidene)-3-(trifluoromethyl)benzamide]
≤ 100 nM | ≤ 100 nM | O=C(/N=c1\[nH]c2cc(N3CCCOC3=O)ccc2n1CC1(O)CCCC1)c1cccc(C(F)(F)F)c1 [Compound 162, (E)-N-(1-((1-hydroxycyclopentyl)methyl)-5-(2-oxo-1,3-oxazinan-3-yl)-1H-benzo[d]imidazol-2(3H)-ylidene)-3-(trifluoromethyl)benzamide]
≤ 100 nM | ≤ 100 nM | [2H]C([2H])([2H])Oc1cc2c(cc1N1CCOCC1=O)[nH]/c(=N\C(=O)c1cccc(C(F)(F)F)c1)n2CCCO [Example 202, (E)-N-(1-(3-hydroxypropyl)-6-(trideuteromethoxy)-5-(3-oxomorpholino)-1H-benzo[d]imidazol-2(3H)-ylidene)-3-(trifluoromethyl)benzamide]
≤ 100 nM | 100 to 1000 nM | O=C(/N=c1\[nH]c2cc(N3CCOCC3=O)cc(F)c2n1CCCO)c1cccc(C(F)(F)F)c1 [Example 210, (E)-N-(7-fluoro-1-(3-hydroxypropyl)-5-(3-oxomorpholino)-1H-benzo[d]imidazol-2(3H)-ylidene)-3-(trifluoromethyl)benzamide]
